From patent EP3041353B1, “COMPOSITIONS COMPRISING BACTERIOSTATIC AGENTS AND BRILLIANT BLUE G” (priority 2013, dated 2015) come the findings set out here.

Series [1] deals with Clavibacter michiganensis. Kind of series: Bacteriostatic effect of Octenidin with BBG: turbidity after 24 h incubation. It counts as cell-based. More on the design: key: +: Bakterienwachstum nach 24 h Inkubation; -: kein Bakterienwachstum nach 24 h Inkubation. The conditions noted are these: no BBG. As for the experimental part: (§1) Zur Untersuchung des Einflusses von BBG auf die bakteriostatische Wirkung wurden Bakterien 24 h mit erfindungsgemäßen Zusammensetzungen, Benzalkoniumchlorid (BAK) und Octenidin (Oct) als Bakteriostatikum enthielten, inkubiert. Wenn sich die Inkubationsmischung trübte, wurde das als Bakterienwachstum interpretiert. Zum Vergleich wurde Brillantblau R (BBR) anstelle von BBG eingesetzt. Die Ergebnisse sind in den Tabellen 1-4 wiedergegeben. Tabelle 1: Einfluss von BBG und BBR auf die bakteriostatische Wirkung von BAK gegenüber Escherichia coli (E. coli), + = Bakterienwachstum nach 24 h Inkubation, - = kein Bakterienwachstum nach 24 h Inkubation, R = Brillantblau R (BBR), G = Brillantblau G (BBG).
(§2) Tabelle 4: Einfluss von BBG auf die bakteriostatische Wirkung von Octenidin (Oct) gegenüber Gram-positiven Bakterien., + = Bakterienwachstum nach 24 h Inkubation, - = kein Bakterienwachstum nach 24 h Inkubation, +/- = geringes Wachstum nach 24 h Inkubation, BBG = Brillantblau G.

Series [2] has as its system Bacillus megaterium. Described as above. It counts as cell-based. Also noted: key: +: Bakterienwachstum nach 24 h Inkubation; -: kein Bakterienwachstum nach 24 h Inkubation. The following applies: no BBG. The method, then:
as §1, §2

The test system of series [3] is Bacillus subtilis. The series is described as above. It counts as cell-based. Also noted: key: +: Bakterienwachstum nach 24 h Inkubation; -: kein Bakterienwachstum nach 24 h Inkubation. The following applies: no BBG. The method, then: as §1, §2
Series [4] relates to Paenibacillus sp. Described as above. It counts as cell-based. More on the design: key: +: Bakterienwachstum nach 24 h Inkubation; -: kein Bakterienwachstum nach 24 h Inkubation. The conditions noted are these: no BBG. As for the experimental part: as §1, §2
The subject of series [5] is Escherichia coli DH5α. The series is described as above. It counts as cell-based. More on the design: key: +: Bakterienwachstum nach 24 h Inkubation; -: kein Bakterienwachstum nach 24 h Inkubation. The following applies: no BBG. As for the experimental part: as §1
(§3) Gram-negative Bakterien (hier E. coli) sind widerstandsfähiger als Gram-positive Bakterien (hier Bacillus sp.) und wachsen konzentrationsabhängig. […] Tabelle 3: Einfluss von BBG auf die bakteriostatische Wirkung von Octenidin (Oct) gegenüber Gram-negativen Bakterien., + = Bakterienwachstum nach 24 h Inkubation, - = kein Bakterienwachstum nach 24 h Inkubation, BBG = Brillantblau G.

In series [6] the test system is Pseudomonas putida DSM 291. The description is as above. It counts as cell-based. More on the design: key: +: Bakterienwachstum nach 24 h Inkubation; -: kein Bakterienwachstum nach 24 h Inkubation. The conditions noted are these: no BBG. As for the experimental part: as §1, §3
Series [7] has as its system Vibrio sp. Gal12. The series is described as above. It counts as cell-based. Also noted: key: +: Bakterienwachstum nach 24 h Inkubation; -: kein Bakterienwachstum nach 24 h Inkubation. The following applies: no BBG. The method, then:
as §1, §3

For series [8], the system named is HCE-Zellen. It counts as cell-based, human. The method, then:
Die Erfindung wird im Folgenden rein zu Veranschaulichungszwecken anhand der angehängten Figuren und von Ausführungsbeispielen näher erläutert. • Figur 1 Effekt von 0,025% BBG auf die Toxizität von unterschiedlichen Konzentrationen (in Gew.-%) von Benzalkoniumchlorid (BAK) auf HCE-Zellen (HCE = human corneal epithelium, Menschliche Hornhautepithelzellen) bei verschiedenen Einwirkdauern (5, 30, 60 min). Oben: BAK ohne BBG. Unten: BAK mit BBG. Inkubationsmedium: Phosphat-gepufferte Kochsalzlösung (PBS). • Figur 2 Effekt von BBG (in Gew.-%) in unterschiedlichen Konzentrationen auf die Toxizität von BAK bei 0,003% (oben) und 0,008% (unten). PBS = Phosphat-gepufferte Kochsalzlösung; BBS = balanced salt solution (ausgeglichene Salzlösung). • Figur 3 Effekt von BBG (0,025 Gew.-%) auf die Toxizität von Octenidindihydrochlorid (Oct) in unterschiedlichen Konzentrationen (in Gew.-%) nach 5 min Inkubation (oben) und 30 min Inkubation (unten). Octenidin alone = Octenidin allein (ohne BBG). • Figur 4 Effekt von BBG (0,025 %) auf die Toxizität von Cetylpyridiniumchlorid (CPC) in unterschiedlichen Konzentrationen (in Gew.-%) nach 5 min Inkubation (oben) und 30 min Inkubation (unten). CPC alone = Cetylpyridiniumchlorid allein (ohne BBG). • Figur 5 Effekt von BBG (0,025 %) auf die Toxizität von Chlorhexidin (CHex) in Form von Chlorhexidindigluconat in unterschiedlichen Konzentrationen (in Gew.-%) nach 5 min Inkubation (oben) und 30 min Inkubation (unten). Chlorhexidin alone = Chlorhexidin allein (ohne BBG)
Figur 1 zeigt die Wirkung von BBG 0,025% Gew.-% auf die Toxizität von unterschiedlichen Konzentrationen (in Gew.-%) von Benzalkoniumchlorid (BAK) auf HCE-Zellen (HCE = human corneal epithelium, Menschliche Hornhautepithelzellen) bei verschiedenen Einwirkdauern (5, 30, 60 min).
Figur 2 zeigt die Wirkung von BBG (in Gew.-%) in unterschiedlichen Konzentrationen und zwei unterschiedlichen Medien (PBS und BSS) auf die Toxizität von BAK bei 0,003% (oben) und 0,008% (unten) bei HCE-Zellen. Die Schutzwirkung von BBG bei niedrigeren BAK-Konzentrationen setzt schon bei 0,003% BBG ein. Bei höheren BAK-Konzentrationen sind 0,015% notwendig.
Figur 3 zeigt die Wirkung von BBG (0,025 Gew.-%) auf die Toxizität von Octenidin (Oct) Form von Octenidindihydrochlorid in unterschiedlichen Konzentrationen (in Gew.-%) nach 5 min Inkubation (oben) und 30 min Inkubation (unten). Octenidin alone = Octenidin allein (ohne BBG). […] BBG (0,025 Gew.-%) kann diesen Effekt bei 5 min Inkubation (links) bis zu einer Oct-Konzentration von 0,01% (der höchsten getesteten Konzentration) verhindern. Bei 30 min Einwirkzeit (rechts) ist erst ab 0,009 Gew.-% Oct der Schutz nicht mehr maximal.
Die Figuren 4 und 5 zeigen die Wirkung von BBG (0,025 Gew.-%) auf die Toxizität von Cetylpyridiniumchlorid (CPC, Fig. 4) und Chlorhexidin (CHex in Form von Chlorhexidindigluconat, Fig. 5) in unterschiedlichen Konzentrationen (in Gew.-%) nach 5 min Inkubation (jeweils oben) und 30 min Inkubation (jeweils unten).

Series [9] relates to Bacillus sp. Nature of the series: Bacteriostatic effect of BAK with BBG/BBR: turbidity after 24 h incubation. It counts as cell-based. Also noted: key to Bakterienwachstum nach 24 h Inkubation: +: Bakterienwachstum nach 24 h Inkubation; -: kein Bakterienwachstum nach 24 h Inkubation. The method, then: as §1
Tabelle 2: Einfluss von BBG und BBR auf die bakteriostatische Wirkung von BAK gegenüber Bacillus sp., + = Bakterienwachstum nach 24 h Inkubation, - = kein Bakterienwachstum nach 24 h Inkubation, R = Brillantblau R (BBR), G = Brillantblau G (BBG).

For series [10], the system named is Escherichia coli (E. coli). The description is as above. It counts as cell-based. Also noted: key to Bakterienwachstum nach 24 h Inkubation: +: Bakterienwachstum nach 24 h Inkubation; -: kein Bakterienwachstum nach 24 h Inkubation. The method, then:
as §1

As for `CCCCCCCCN=c1ccn(CCCCCCCCCCn2ccc(=NCCCCCCCC)cc2)cc1` [Octenidin, reference compound], the “Bakterienwachstum nach 24 h Inkubation” value in series [1] (Octenidin 0,01% alone), in series [1] (Octenidin 0,002% alone), in series [1] (Octenidin 0,003% alone), in series [1] (Octenidin 0,005% alone), in [1] (Octenidin 0,007% alone) and in series [1] (Octenidin 0,009% alone) was “-” throughout. Moreover, the “Bakterienwachstum nach 24 h Inkubation” value in series [2] (Octenidin 0,01% alone), in series [2] (Octenidin 0,002% alone), in series [2] (Octenidin 0,003% alone), in series [2] (Octenidin 0,005% alone), in series [2] (Octenidin 0,007% alone) and in series [2] (Octenidin 0,009% alone) was “-” throughout. The “Bakterienwachstum nach 24 h Inkubation” value in [3] (Octenidin 0,01% alone), in series [3] (Octenidin 0,002% alone), in series [3] (Octenidin 0,003% alone), in series [3] (Octenidin 0,005% alone), in series [3] (Octenidin 0,007% alone) and in [3] (Octenidin 0,009% alone) was “-” in each case. Moreover, the “Bakterienwachstum nach 24 h Inkubation” value in [4] (Octenidin 0,01% alone), in [4] (Octenidin 0,002% alone), in series [4] (Octenidin 0,003% alone), in series [4] (Octenidin 0,005% alone), in series [4] (Octenidin 0,007% alone) and in series [4] (Octenidin 0,009% alone) was “-” throughout. Moreover, the “Bakterienwachstum nach 24 h Inkubation” value in series [5] (Octenidin 0,01% alone), in [5] (Octenidin 0,002% alone), in [5] (Octenidin 0,003% alone), in series [5] (Octenidin 0,005% alone), in series [5] (Octenidin 0,007% alone) and in [5] (Octenidin 0,009% alone) was “-” each time. Moreover, the “Bakterienwachstum nach 24 h Inkubation” value in series [6] (Octenidin 0,01% alone), in [6] (Octenidin 0,002% alone), in series [6] (Octenidin 0,003% alone), in [6] (Octenidin 0,005% alone), in [6] (Octenidin 0,007% alone) and in [6] (Octenidin 0,009% alone) was “-” each time. Besides, the “Bakterienwachstum nach 24 h Inkubation” value in series [7] (Octenidin 0,01% alone), in series [7] (Octenidin 0,002% alone), in series [7] (Octenidin 0,003% alone), in [7] (Octenidin 0,005% alone), in [7] (Octenidin 0,007% alone) and in series [7] (Octenidin 0,009% alone) was “-” each time. The “Toxizität (Zellschädigung)” value in series [8] was “stark zellschädigend”.

Regarding Brillantblau R [BBR], the “Bakterienwachstum nach 24 h Inkubation” value is “-” in [9] (0.007% R + BAK 0.001%); “-” in series [9] (0.007% R + BAK 0.01%); “+” in [9] (0.030% R, Kein BAK); “-” in [10] (0,007% R + BAK 0,01%); “+” in series [10] (0,007% R + BAK 0,001 %); “+” in series [10] (0,007% R + BAK 0,0016%). Moreover, the “Bakterienwachstum nach 24 h Inkubation” value is “-” in series [10] (0,007% R + BAK 0,0025%); “-” in series [10] (0,007% R + BAK 0,004%); “-” in series [10] (0,007% R + BAK 0,006%); “-” in series [10] (0,015% R + BAK 0,01%); “+” in series [10] (0,015% R + BAK 0,001 %); “+” in [10] (0,015% R + BAK 0,0016%). For the same compound, the “Bakterienwachstum nach 24 h Inkubation” value was “+” in series [10] (0,015% R + BAK 0,0025%); “-” in series [10] (0,015% R + BAK 0,004%); “-” in [10] (0,015% R + BAK 0,006%); “-” in series [10] (0,030% R + BAK 0,01%); “+” in [10] (0,030% R + BAK 0,001 %); “+” in series [10] (0,030% R + BAK 0,0016%). Besides, the “Bakterienwachstum nach 24 h Inkubation” value in series [10] (0,030% R + BAK 0,0025%) is on record as “+”; in [10] (0,030% R + BAK 0,004%), “+”; in series [10] (0,030% R + BAK 0,006%), “+”; in series [10] (0,030% R, Kein BAK), “+”. Further, the “Einfluss auf das Bakterienwachstum” value in [9] (dye alone, no BAK (rechte Spalte, Tabelle 2)) is on record as “beeinflussen das Bakterienwachstum nicht”; in series [10] (dye alone, no BAK (rechte Spalte, Tabelle 1)) it was “beeinflussen das Bakterienwachstum nicht”. Further, the “Schutzwirkung (zelltoxische Wirkung der Bakteriostatika bei gleichzeitiger Gabe)” value in series [8] (dye given together with the bacteriostatic agent) is reported as “zeigte sich diese Schutzwirkung nicht”. In series [10] (Gram-negative Bakterien (E. coli), concentration dependent), the “Einfluss auf die bakteriostatische Wirkung von BAK” value was “hebt einen Teil der bakteriostatischen Wirkung auf”.

With Benzalkoniumchlorid [BAK], the “Bakterienwachstum nach 24 h Inkubation” value in [9] (BAK 0.001% alone, no dye) is “-”; in [10] (BAK 0,01% alone, no dye), “-”; in [10] (BAK 0,001 % alone, no dye) it was “-”.
